Data on eleven molecules can be found in ChEMBL document CHEMBL1201862, “PubChem BioAssay data set” (2004).

Holding throughout (assay): NCI-60 cell line screen, 48 h
The test system of experiment [1] is SK-MEL-2.
Experiment [2] deals with MDA-N.
Experiment [3] concerns MDA-MB-231.
Experiment [4] has as its system CAKI-1.
Experiment [5] has as its system U-251.
Experiment [6] has as its system CCRF-CEM.
Experiment [7] has as its system SNB-19.
Experiment [8] has as its system SN12C.
In experiment [9] the test system is UO-31.
The test system of experiment [10] is HOP-92.
For experiment [11], the system named is SW-620.
Experiment [12] relates to MOLT-4.
Experiment [13] concerns BT-549.
For experiment [14], the system named is NCI-H522.
Experiment [15] has as its system OVCAR-8.
For experiment [16], the system named is NCI/ADR-RES.
The test system of experiment [17] is COLO 205.
Experiment [18] has as its system HL-60.
Experiment [19] has as its system KM12.
For experiment [20], the system named is LOX IMVI.

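Interpolation was linear, between the two tested concentrations surrounding the appropriate level; five concentrations were tested over 48 hours in 96-well plates. The concentration for 50% growth inhibition is given as GI50.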 Calls of active or inactive are those of the source. No stated cut-off is given here; in the data, active = GI50 up to about 1.1 µM and inactive = higher.

As for `O=C(O)Cn1ccnc1[N+](=O)[O-]`, the GI50 in experiment [1], in experiment [2], in experiment [3], in [4], in experiment [5] and in experiment [6] was > 100 µM (inactive) each time. In addition, the GI50 in experiment [7], in experiment [8], in [9], in experiment [10], in experiment [11] and in experiment [12] was > 100 µM (inactive) throughout. Moreover, the GI50 in [13], in experiment [14], in experiment [15], in experiment [16], in experiment [17] and in experiment [18] was > 100 µM (inactive) throughout. In experiment [19], the GI50 was > 100 µM (inactive).
For the molecule `CSc1nc(N)c(NC2OC(CO)C(O)C2O)c(=O)[nH]1` (configuration not stated), the GI50 in experiment [1], in [2], in experiment [3], in experiment [4], in experiment [5] and in [6] was > 100 µM (inactive) each time. For the same molecule, the GI50 in experiment [7], in experiment [8], in [9], in experiment [11], in [20] and in [12] was > 100 µM (inactive) in each case. For the same molecule, the GI50 in experiment [13], in experiment [14], in [15], in experiment [16], in [17] and in experiment [18] was > 100 µM (inactive) each time. Also, in [19], the GI50 is > 100 µM (inactive).
As to `CCCCCCNC(=S)N/N=C(\C)c1ccccn1`, the GI50 in experiment [1] is 3.09 µM (inactive); in [2], 0.904 µM (active); in experiment [3] it was 0.217 µM (active); in [4], < 0.01 µM (active); in experiment [5], 0.2 µM (active); in experiment [6], < 0.01 µM (active). The GI50 was 3.4 µM (inactive) in experiment [7]; 1.41 µM (inactive) in experiment [8]; 0.124 µM (active) in experiment [9]; < 0.0322 µM (active) in [11]; 0.0493 µM (active) in experiment [20]; < 0.01 µM (active) in experiment [12]. Further, the GI50 was 0.111 µM (active) in experiment [13]; 0.06 µM (active) in experiment [14]; 0.0912 µM (active) in [15]; < 0.01 µM (active) in experiment [16]; < 0.01 µM (active) in experiment [17]; < 0.01 µM (active) in experiment [18]. For the same molecule, the GI50 in experiment [19] was 0.394 µM (active).
Regarding `O=C(O)c1ccc(C(c2c(O)oc3ccccc3c2=O)c2c(O)oc3ccccc3c2=O)cc1`, the GI50 was > 100 µM (inactive) in experiment [1]; > 100 µM (inactive) in [2]; > 100 µM (inactive) in [3]; > 100 µM (inactive) in experiment [4]; > 100 µM (inactive) in experiment [5]; 25.2 µM (inactive) in experiment [6]. Also, the GI50 is > 100 µM (inactive) in experiment [7]; > 100 µM (inactive) in [8]; 14.2 µM (inactive) in experiment [9]; 2.82 µM (inactive) in experiment [10]; > 100 µM (inactive) in experiment [11]; > 100 µM (inactive) in experiment [20]. Further, the GI50 is > 100 µM (inactive) in experiment [12]; > 100 µM (inactive) in experiment [13]; > 100 µM (inactive) in [15]; > 100 µM (inactive) in experiment [16]; 40.9 µM (inactive) in experiment [17]; 0.0397 µM (active) in experiment [18]. Moreover, in experiment [19], the GI50 is > 100 µM (inactive).
`NC(Cc1ccc(O)c(O)c1)P(=O)(O)O` (configuration not stated): the GI50 in [1] was > 100 µM (inactive); in experiment [2] it was > 100 µM (inactive); in experiment [3] it was > 100 µM (inactive); in experiment [4] it was > 100 µM (inactive); in [5], > 100 µM (inactive); in experiment [6], 21.6 µM (inactive). Moreover, the GI50 in [7] was > 100 µM (inactive); in [8], > 100 µM (inactive); in experiment [9], > 100 µM (inactive); in experiment [10], > 100 µM (inactive); in [11] it was 20.1 µM (inactive); in experiment [12] it was > 100 µM (inactive). Further, the GI50 was > 100 µM (inactive) in [13]; 4.75 µM (inactive) in experiment [14]; > 100 µM (inactive) in [15]; > 100 µM (inactive) in experiment [16]; > 10 µM (inactive) in [17]; 16.2 µM (inactive) in experiment [18]. In addition, the GI50 in [19] is > 100 µM (inactive).
Turning to `CC1=C(C(=O)OC(C)C)C(c2ccccc2[N+](=O)[O-])C(C(=O)OC(CO[N+](=O)[O-])CO[N+](=O)[O-])=C(C)N1` (configuration not stated), the GI50 in [1] was 2.99 µM (inactive); in [2], 2.79 µM (inactive); in experiment [3] it was 5.68 µM (inactive); in experiment [4] it was 3.32 µM (inactive); in experiment [5], 2.99 µM (inactive); in experiment [6], 2.09 µM (inactive). Also, the GI50 is 3.44 µM (inactive) in experiment [7]; 3.8 µM (inactive) in [8]; 3.56 µM (inactive) in experiment [9]; 4.03 µM (inactive) in experiment [11]; 2.68 µM (inactive) in experiment [20]; 1.46 µM (inactive) in experiment [12]. The GI50 in experiment [13] is 3.52 µM (inactive); in experiment [14] it was 2.42 µM (inactive); in [15], 3.28 µM (inactive); in experiment [16], 3.27 µM (inactive); in [17], 5.24 µM (inactive); in experiment [18], 6.25 µM (inactive). In addition, the GI50 in [19] is 3.75 µM (inactive).
Take `COC(=O)CCC12CCC(O1)c1ccccc12` (configuration not stated): the GI50 in experiment [2], in [3], in [4], in [5], in [6] and in experiment [7] was > 100 µM (inactive) in each case. For the same molecule, the GI50 in experiment [8] was > 100 µM (inactive); in [9] it was > 100 µM (inactive); in [10], 92.5 µM (inactive); in [11], > 100 µM (inactive); in [20] it was > 100 µM (inactive); in experiment [12] it was > 100 µM (inactive). Besides, the GI50 in experiment [13], in experiment [14], in [15], in experiment [16], in experiment [17] and in [18] was > 100 µM (inactive) throughout. Besides, the GI50 in experiment [19] was > 100 µM (inactive).
In the case of `O=C(NCCCc1cn[nH]c(=O)n1)c1cccc2nc3ccccc3nc12`, the GI50 was > 100 µM (inactive) in experiment [1]; > 100 µM (inactive) in [2]; 27.8 µM (inactive) in experiment [3]; > 100 µM (inactive) in experiment [4]; 36.5 µM (inactive) in [5]; > 100 µM (inactive) in experiment [6]. Moreover, the GI50 in experiment [7] was > 100 µM (inactive); in experiment [8], 86.3 µM (inactive); in experiment [10], 75 µM (inactive); in experiment [11], > 100 µM (inactive); in experiment [20], > 100 µM (inactive); in experiment [12], 33.3 µM (inactive). The GI50 in experiment [13] was > 100 µM (inactive); in [15] it was 61.9 µM (inactive); in experiment [16], > 100 µM (inactive); in [17] it was > 100 µM (inactive); in [18], > 100 µM (inactive); in experiment [19], > 100 µM (inactive).
Regarding `O=C(Cc1ccccc1)NCCc1ccc(O)c(O)c1`, the GI50 in experiment [1] is 24.8 µM (inactive); in experiment [2], 17.4 µM (inactive); in experiment [3], 37.2 µM (inactive); in [5], 78.7 µM (inactive); in experiment [6], 5.14 µM (inactive); in [7], > 100 µM (inactive). Further, the GI50 in [8] was 95.9 µM (inactive); in experiment [9], 41.2 µM (inactive); in experiment [10], > 100 µM (inactive); in [11], > 100 µM (inactive); in [20], 44.7 µM (inactive); in experiment [12] it was 16.6 µM (inactive). Also, the GI50 in [13] is 82.8 µM (inactive); in [14] it was 28.4 µM (inactive); in [15], > 100 µM (inactive); in [16], > 100 µM (inactive); in experiment [17], > 100 µM (inactive); in experiment [18], 13.8 µM (inactive). In addition, in [19], the GI50 is > 100 µM (inactive).
In the case of `O=S1(=O)NN=C(NCc2ccc(F)cc2)c2ccccc21`, the GI50 in experiment [1] was > 100 µM (inactive); in [2], > 100 µM (inactive); in experiment [3] it was > 100 µM (inactive); in [4], > 89.5 µM (inactive); in experiment [5] it was 33 µM (inactive); in [6], 23.7 µM (inactive). The GI50 was 39.3 µM (inactive) in experiment [7]; > 100 µM (inactive) in [8]; > 100 µM (inactive) in experiment [9]; 24.7 µM (inactive) in experiment [10]; > 79.3 µM (inactive) in [11]; 36.3 µM (inactive) in experiment [20]. Moreover, the GI50 is > 36 µM (inactive) in [12]; 67.5 µM (inactive) in experiment [13]; > 94.2 µM (inactive) in [15]; 65.2 µM (inactive) in experiment [16]; > 76.4 µM (inactive) in experiment [17]; 13.1 µM (inactive) in experiment [18]. Also, in experiment [19], the GI50 is > 100 µM (inactive).
For the molecule `COC(=O)c1c(O)ccc2c1c1c(n2Cc2ccccc2Cl)C(=O)c2ccccc2C1=O`, the GI50 in [1] was 17.4 µM (inactive); in [2] it was 12.8 µM (inactive); in [3], 15.3 µM (inactive); in experiment [4] it was 13.7 µM (inactive); in experiment [5], 12.6 µM (inactive); in [6] it was 8.38 µM (inactive). Also, the GI50 in experiment [7] is 16 µM (inactive); in [8], 10.2 µM (inactive); in [9], 10.9 µM (inactive); in [10], 14.8 µM (inactive); in experiment [12] it was 7.03 µM (inactive); in [13], 12.6 µM (inactive). The GI50 in experiment [14] was 10.9 µM (inactive); in experiment [15] it was 16 µM (inactive); in experiment [16] it was 12.1 µM (inactive); in experiment [17], 4.13 µM (inactive); in experiment [18], 16.9 µM (inactive); in experiment [19], 10.1 µM (inactive).
